Like-named read-outs stand apart in the source and are kept apart here.
Biological target: T1, Synechococcus PDS (phytoene desaturase) (Synechococcus elongatus, UniProt P26294)
T1 construct: recombinant, pET15b-Synechococcus PDS
Assay: SPR (Biacore 8K, protein immobilized on CM5 chip)
Assay type: binding

T1 sequence (P26294 whole entry): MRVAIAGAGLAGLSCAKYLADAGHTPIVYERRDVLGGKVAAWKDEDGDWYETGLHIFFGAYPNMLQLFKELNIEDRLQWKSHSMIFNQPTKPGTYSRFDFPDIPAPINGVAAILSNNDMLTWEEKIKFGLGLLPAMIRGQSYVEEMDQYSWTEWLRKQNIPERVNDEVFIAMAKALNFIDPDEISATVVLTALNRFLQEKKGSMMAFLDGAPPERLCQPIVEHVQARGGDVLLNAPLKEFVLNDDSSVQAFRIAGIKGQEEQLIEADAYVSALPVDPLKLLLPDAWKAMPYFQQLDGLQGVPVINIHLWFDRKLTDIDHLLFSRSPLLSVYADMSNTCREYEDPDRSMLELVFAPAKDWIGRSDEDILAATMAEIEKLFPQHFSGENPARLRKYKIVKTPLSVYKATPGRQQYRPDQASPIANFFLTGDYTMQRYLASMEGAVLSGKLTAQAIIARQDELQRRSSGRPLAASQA

Row | Kd (read-out: Kd) [µM] | SMILES | Kd [µM]
1 | 63.2 | CCc1cc(-c2cccc(C(F)(F)F)c2)c(Oc2cc(F)c(F)c(F)c2)nn1 [3h, 6-ethyl-4-(3-(trifluoromethyl)phenyl)-3-(3,4,5-trifluorophenoxy)pyridazine] | –
2 | 7.08 | Cc1cc(-c2cccc(C(F)(F)F)c2)c(Oc2ccc(C(F)(F)F)cc2)nn1 [2a, 6-methyl-3-(4-(trifluoromethyl)phenoxy)-4-(3(trifluoromethyl)phenyl)pyridazine] | –
3 | – | O=C(Nc1ccc(F)cc1F)c1cccnc1Oc1cccc(C(F)(F)F)c1 [diflufenican] | 70.8
4 | 43.5 | Cc1cc(-c2cccc(C(F)(F)F)c2)c(Oc2ccc(C#N)cc2)nn1 [compound 1] | –

From publication PMC8618034, “In Silico Structure-Guided Optimization and Molecular Simulation Studies of 3-Phenoxy-4-(3-trifluoromethylphenyl)pyridazines as Potent Phytoene Desaturase Inhibitors” (Molecules, 2021)
